Test results from patent US5886046A, “Dicarbonyl-containing compounds” (priority 1996, dated 1999).

Assays:
[1] = target: HIV-1 protease (Human immunodeficiency virus type 1 group M subtype B, UniProt P12497); assay: biochemical
Description: (§1) The biological activity compound (4) was compared with the known enzyme inhibitor (1) N-(2(R)-Hydroxy-1(S)-indonyl)-5(S)-[tert-butyloxycarbonyl)amino]-4(S)-hydroxy-6-(4-hydroxyphenyl)-2-(R) -[(4-hydroxyphenyl)methyl]hexanamide. See, e.g., Thompson, W. J. et al., J. Med. Chem. 1992, 35, 1685) according to methods recited in the Thompson, supra. and Heimbach, J. C. et al., Biochem. Biophys. Res. Commun. 1989, 164, 955-960.

[2] = system: HIV-1; assay: CIC95 (cell culture assay of Thompson, not further described); format: cell-based
Description: as §1

CC(=O)C(=O)COc1ccc(C[C@H](C[C@H](O)[C@H](Cc2ccccc2)NC(=O)OC(C)(C)C)C(=O)N[C@H]2c3ccccc3C[C@H]2O)cc1 [Compound 4]
IC50 [1]: 0.075 nM | IC95 ([2]; Human immunodeficiency virus 1): < 6 nM | CIC95/IC50 ([2]; ratio of CIC95 to IC50): < 80
